The values that follow come from a melting point compilation (Tetko et al.).

Broadly, the melting point is the temperature of the solid-liquid transition.

`OC(Cn1cncn1)(c1ccc(F)cc1)c1ccccc1F` (stereo not drawn) displayed a melting point of 130 °C. Compound `Cc1ccc(Br)c(C)c1` displayed a melting point of -17 °C.

In turn, `O=C(Cc1ccccc1)NC(CO)c1ccccc1` (stereo not drawn) registered a melting point of 140 °C. The compound `CC(C)=NNC(=O)c1cc(C)on1` returned a melting point of 244 to 246 °C. For `CC=Cc1cc2c(c(=O)o1)C(=O)C(O)C(C)O2` (stereo not drawn), the melting point was 222 °C. Compound `O=CC(C=O)c1ccc(Cl)cc1` displayed a melting point of 137 to 143 °C.

Turning to `O=C1OC(c2ccccc2)=NC1=Cc1ccccc1`, the melting point was found to be 167 °C.

`OCc1nc2ccccc2[nH]1` registered a melting point of 165 to 172 °C.

Regarding `COc1ccc(CC(=O)C(=O)O)cc1`, the melting point was 194 °C.

For `O=S(=O)(Cl)c1ccc(-c2ccc(F)cc2)cc1`, the melting point was 82 to 84 °C. With `O=C1CCCC2C3CCCN4CCCC(CN12)C34` (stereo not drawn), the melting point was determined as 76 °C. The value for `CCCCC(CC)(CO)CO` was 43.8 °C; that for `COC(=O)C1(S(=O)(=O)c2ccc(Br)cc2)CC1` was 124 °C. As for `COC(=O)c1ccncc1`, the melting point amounted to 12.1 °C. For the compound `CC(C=CC=C(C)C=CC12OC1(C)CC(O)CC2(C)C)=CC=CC=C(C)C=CC=C(C)C=CC12OC1(C)CC(O)CC2(C)C` (stereo not drawn), the melting point is 208 °C.

On to `CC(=O)c1ccc(NC(=O)C(C(F)(F)F)C(F)(F)F)cc1`, for which the melting point amounted to 174 °C. Compound `CCCCCCCCOc1ccc(C(C)=O)cc1OCCCCCCCC` yielded a melting point of 59 to 61 °C. The value for `NCCc1c[nH]cn1` was 86 °C. Consider `CNC(=O)Oc1ccccc1C(C)C`, for which the melting point came out at 94 °C. Turning to `COc1ccccc1N1CCN(CC(C)N(C(=O)C2CCCCC2)c2ccccn2)CC1` (stereo not drawn), the melting point fell in the range of 90 to 91 °C. As to `NCc1ccccn1`, the melting point is -20 °C. The value for `O=C(O)c1cccc2c1-c1ccccc1C2` was 192 to 194 °C; that for `OCc1cccc(-c2ccccc2)c1` was 55 °C; that for `CCCCCBr` was -92.7 °C. `Cc1cnc(C)cn1`: the melting point stood at 15 °C. To `CC12CCC(CC(Br)c3ccccc3)(OC1=O)C2(C)C` (stereo not drawn) belongs 206 °C; to `COc1ccc(SC)cc1`, 22 to 23 °C; to `O=S(=O)(Cl)c1cc(Cl)c(Cl)s1`, 56 °C. `NCC(=O)O` displayed a melting point of 182 °C. Regarding `O=C(O)c1cc(O)c2ccccc2n1`, the melting point turned out to be 282 °C. Consider `CCn1c(-c2ccccc2)cc2ccccc21`, for which the melting point amounted to 86 °C. On to `Cc1nc2ccccc2n1CCc1nnc(S)n1N=Cc1ccccc1Cl`, for which the melting point was determined as 250 °C.

For the compound `CCN(CC)CCN1C(=O)CN=C(c2ccccc2F)c2cc(Cl)ccc21`, the melting point is 79.5 °C. `CCNS(=O)(=O)c1ccc(C)cc1` registered a melting point of 64 °C. For the compound `O=C(c1nn2c(nc(=O)c3ccccc32)s1)c1cccc2ccccc12`, the melting point was found to be 241 °C. `O=c1oc2c(o1)=C(c1ccccc1)S(=O)(=O)C=2c1ccccc1` had a melting point of 227 °C. To `Cc1cc2c(o1)-c1c(oc3c(I)cc(I)cc13)CCC2(C)c1ccccc1` (stereo not drawn) belongs 175 °C; to `N#Cc1ccncc1C#N`, 80 °C.

Take `CCCCCCCCCCCCCCCCCC(=O)OC1CCC2(C)C(=CCC3C2CCC2(C)C(C(C)CCCC(C)C)CCC32)C1` (stereo not drawn): the melting point is 79 to 83 °C. For the compound `C=CCn1c(=O)oc(=O)c2ccccc21`, the melting point lay in the range of 111 to 113 °C. The compound `CC(C)(C)c1csc(-c2ccc(C=O)cc2)n1` gave a melting point of 106 to 107 °C. With `NS(=O)(=O)c1cccc(/C(=N\O)c2ccccc2)c1`, the melting point came out at 155 °C. The compound `CN1CCN(C(=O)CC(c2ccc(Cl)cc2)(c2ccc(Cl)cc2)c2ccc(Cl)cc2)CC1` displayed a melting point of 214 °C.
